{
  "source": "patent US20220022395A1",
  "about": "“JASMONIC ACID ENDOGENY PROMOTING AGENT, AND METHOD FOR PROMOTING JASMONIC ACID ENDOGENY” (Tokyo University of Science Foundation, priority 2018, published 2022)",
  "key": {"[1]": {"system": "Arabidopsis thaliana (Col-0)", "experiment": "Measurement of amount of endogenous jasmonic acid production (LC-MS/MS)", "assay_type": "in vivo", "settings": "50 μM, 24 h in the light, vs DMSO negative control; FIG. 1 (*p<0.05; **p<0.01)", "protocol": "Arabidopsis thaliana (Col-0) seeds were sown on a transparent 96-well plate, and soaked in a 1/2 MS medium (150 μL). The seeds were left for 2-3 days in a cool and dark place, and then left to grow under long-day treatment conditions for 9-10 days. Thereafter, the medium was replaced with a 1/2 MS medium (100 μL) containing each (50 μM) of compounds E1, E2, and E3, and comparative compounds C1 and C2, vacuum treatment was applied for 10 min, and the seeds were left in the light for 24 h. About 20 to 60 mg of the plantlets (about 3 individuals) and 2 beads for crushing were placed in a tube, and immediately frozen with liquid nitrogen and stored at −80° C. In addition, for a negative control, DMSO was added instead of each of compounds E1, E2, and E3, and comparative compounds C1 and C2.\nThe frozen sample was crushed using a bead-type homogenizer (Bead Smash 12; WakenBtech Co., Ltd.) under conditions of 3,000 rpm for 60 sec, and then 1 mL of an aqueous solution of 70% methanol plus 1% acetic acid and 10 ng of d2-JA (internal standard) were added. The mixture was mixed thoroughly by vortexing. This solution was centrifuged at 10,000 rpm for 5 min and the supernatant was collected. The same process was repeated two more times without the addition of the internal standard, and a total of 3 mL of an extract was collected.\nThe solutions were then applied to a Sep-Pak (registered trademark) Vac 3cc (500 mg) C18 Cartridge (Waters) in the following order of 1. to 6.\n1. acetonitrile (one column volume, about 3 mL) 2. 100% methanol (one column volume) 3. distilled water (one column volume) 4. aqueous solution of 70% methanol+1% acetic acid (two column volumes) 5. sample supernatant (total amount) 6. aqueous solution of 70% methanol+1% acetic acid (one column volume) […]\nThen, the amount of endogenous jasmonic acid (JA) production was determined by LC-MS/MS. […]"}, "PDF1.2 gene [2]": {"system": "PDF1.2 gene", "experiment": "Measurement of expression level of PDF1.2 gene (1), real-time PCR", "assay_type": "in vivo, Arabidopsis thaliana", "settings": "24 h, relative expression (ΔΔCt, EF1-α reference)", "protocol": "Arabidopsis thaliana (Col-0) seeds were sown on a transparent 96-well plate, and soaked in a 1/2 MS medium (150 μL). The seeds were left for 2-3 days in a cool and dark place, and then left to grow under long-day treatment conditions for 9-10 days. Thereafter, the medium was replaced with a 1/2 MS medium (100 μL) containing compound E1 (25 μM) or compound E2 (50 μM), vacuum treatment was applied for 10 min, and the seeds were left in the light for 24 h. About 20 to 60 mg of the plantlets (about 3 individuals) and 2 beads for crushing were placed in a tube, and immediately frozen with liquid nitrogen and stored at −80° C. In addition, for a negative control, DMSO was added instead of each of compounds E1 and E2. […] The concentration of the total RNA obtained was measured, and the total RNA was mixed with RNAse-free H2O to 1/12 μg/μL (6 μL H2O for 0.5 μg of the total RNA), and the mixture was placed in a PCR tube, incubated at 65° C. for 5 min, and then quenched on ice. […] Then, CFX Connect Real-Time PCR Detection System (Bio-Rad) was used to quantitatively determine the expression level of PDF1.2 gene. […] For quantification, the ΔΔCt method was used, and this value was expressed as the relative expression level. […]"}, "PDF1.2 gene [3]": {"system": "PDF1.2 gene", "experiment": "Measurement of expression level of PDF1.2 gene (2), real-time PCR", "assay_type": "in vivo, Arabidopsis thaliana", "settings": "50 μM, 48 h; FIG. 3", "protocol": "(§1) Arabidopsis thaliana (Col-0) seeds were sown on a transparent 96-well plate, and soaked in a 1/2 MS medium (150 μL). The seeds were left for 2-3 days in a cool and dark place, and then left to grow under long-day treatment conditions for 10 days. Thereafter, the medium was replaced with a 1/2 MS medium (100 μL) containing compound E1 (50 μM), compound E4 (50 μM), or compound E5 (50 μM), and comparative compounds C1 and C2, vacuum treatment was applied for 10 min, and the seeds were left in the light for 48 h. Eight individual plantlets and 2 beads for crushing were placed in a tube, and immediately frozen with liquid nitrogen and stored at −80° C. In addition, for a negative control, DMSO was added instead of each of compounds E1, E4, and E5. Then, similarly to Test Example 2, RNA was extracted from the frozen sample, and the expression level of the PDF1.2 gene was quantitatively determined by reverse transcription real-time PCR."}, "PDF1.2 gene [4]": {"system": "PDF1.2 gene", "experiment": "Measurement of expression level of PDF1.2 gene (3), real-time PCR", "assay_type": "in vivo, Arabidopsis thaliana", "settings": "50 μM, 48 h; FIG. 4", "protocol": "as §1, with “3-7” for “2-3”, “μM),” for “μM), compound E4 (50 μM),”, “E6” for “E5”, “E1” for “E1, E4,”, “E6.” for “E5.”"}, "MRC-5 cells": {"system": "MRC-5 cells", "experiment": "Study on cytotoxicity, WST-8 method", "assay_type": "cell-based, human", "settings": "50 μM, cultured 2 days, FIG. 5", "protocol": "Normal fibroblasts MRC-5 from human fetal lung were seeded in a 96-well plate at a cell density of 5,000 cells/well, and cultured for 1 day under conditions of 37° C. and 5% CO2. After the culturing, compound E1 was added to the medium at varying concentrations, and the cells were cultured for another 2 days. Then, the number of viable cells was determined using the WST-8 method, and the viability of the MRC-5 cells was calculated. In addition, for a control, SN-38, an active metabolite of the anticancer drug irinotecan, was added instead of compound E1."}},
  "data": [
    {"compound": "COc1ccc(Oc2cccc(F)c2C#N)cc1", "note": "[compound E1]", "values": [
      {"measurement": "amount of endogenous jasmonic acid production", "setting": "[1]", "result": "significantly increased"},
      {"measurement": "expression level of PDF1.2 gene", "setting": "PDF1.2 gene [2]; 25 μM, FIG. 2A", "result": "markedly enhanced"},
      {"measurement": "expression level of PDF1.2 gene", "setting": "PDF1.2 gene [3]", "result": "markedly enhanced"},
      {"measurement": "expression level of PDF1.2 gene", "setting": "PDF1.2 gene [4]", "result": "markedly enhanced"},
      {"measurement": "viability of the MRC-5 cells", "setting": "MRC-5 cells", "result": "exceeds 60%"}
    ]},
    {"compound": "N#Cc1c(Cl)cccc1Oc1ccc(-c2nnco2)cc1", "note": "[compound E2]", "values": [
      {"measurement": "amount of endogenous jasmonic acid production", "setting": "[1]", "result": "significantly increased"},
      {"measurement": "expression level of PDF1.2 gene", "setting": "PDF1.2 gene [2]; 50 μM, FIG. 2B", "result": "markedly enhanced"}
    ]},
    {"compound": "N#Cc1c(F)cccc1Oc1ccccc1", "note": "[compound E3]", "values": [
      {"measurement": "amount of endogenous jasmonic acid production", "setting": "[1]", "result": "significantly increased"}
    ]},
    {"compound": "COc1ccc(Oc2cccc(Cl)c2C#N)cc1", "note": "[compound E4]", "values": [
      {"measurement": "expression level of PDF1.2 gene", "setting": "PDF1.2 gene [3]", "result": "markedly enhanced"}
    ]},
    {"compound": "COc1ccc(Oc2cccc(Br)c2C#N)cc1", "note": "[compound E5]", "values": [
      {"measurement": "expression level of PDF1.2 gene", "setting": "PDF1.2 gene [3]", "result": "markedly enhanced"}
    ]},
    {"compound": "CC(C)Oc1ccc(Oc2cccc(F)c2C#N)cc1", "note": "[compound E6]", "values": [
      {"measurement": "expression level of PDF1.2 gene", "setting": "PDF1.2 gene [4]", "result": "markedly enhanced"}
    ]}
  ]
}
